Assay: Pharmacokinetic study after single dose in C57BL/6N mice
Format: in vivo, mouse
Experimental: Pharmacokinetic study of MI-883 in C57BL/6N mice (9–10 weeks old, body weight 20.8 to 24.5 g and average body weight across all groups 22.7 g, SD = 1.1 g) were performed following peroral (p.o.) and intraperitoneal (i.p.) administrations. […] There was also a control group of 4 animals per route. The levels of the parent compound MI-883 were determined by LC-MS/MS in the blood plasma, brain, kidney, liver, muscle (Leg triceps), bile, small intestine, colon, and adipose tissues over time after a single dose of 10 mg/kg. Mice were injected i.p. with 2,2,2-tribromoethanol at a dose of 150 mg/kg prior to drawing the blood. Blood collection was performed from the orbital sinus in BD microtainers tubes containing K2EDTA. Animals were sacrificed by cervical dislocation after the blood samples collection. After this, samples of brain, kidney, liver, muscle (Leg triceps), small intestine, colon, and adipose tissue were collected. Bile samples were taken from the gallbladder of mice. Urine and feces samples were collected using metabolic cages over the course of 1440 min (24 h) after compound administration. All samples were immediately processed, flash-frozen, and stored at –70 °C until subsequent analysis. Detection of the presence of potential metabolites (2-chloro-5-((4-(2-(4-chlorophenyl)-7-fluoroimidazo[1,2-a]pyridin-3-yl)-1H-1,2,3-triazol-1-yl)methyl)-N-methylbenzamide or 2-(4-chlorophenyl)-7-fluoro-3-(1H-1,2,3-triazol-4-yl)imidazo[1,2-a]pyridine) in plasma and tissues was performed. MI-883 was applied in 5%DMSO – 5%PEG300 – 90%corn oil formulation with a final concentration of the compound, 2 mg/ml. Animal treatment and sample preparation were conducted by the Animal Laboratory personnel at Enamine/Bienta.
Plasma samples (50 μl) were mixed with 200 μl of IS400 solution. After mixing by pipetting and centrifuging for 4 min at 6000 rpm, 2 μl of each supernatant was injected into the LC-MS/MS system. Solution of compound IS-19851 (400 ng/ml in acetonitrile-methanol mixture 1:1, v/v) was used as internal standard (IS400) for quantification of MI-883 in blood plasma, liver, kidney, muscle (Leg triceps), small intestine, and colon samples. Liver, kidney, muscle (Leg triceps), colon, and small intestine samples (weight 100 mg ±1 mg) were disintegrated in 500 μl of IS400 using zirconium oxide beads (120 mg ± 5 mg) in The Bullet Blender® homogenizer for 1–3 min at speed 8–12. After this, the samples were centrifuged for 3 min at 14,000 rpm, and 1 μl of each supernatant was injected into the LC-MS/MS system.
Brain and adipose tissue samples (weight 100 mg ± 1 mg) were dispersed in 500 μl of IS400(80) using zirconium oxide beads (120 mg ± 5 mg) in The Bullet Blender® homogenizer for 30 s at speed 8. After this, the samples were centrifuged for 4 min at 14,000 rpm, and 1 μl of each supernatant was injected into the LC-MS/MS system. Solution of compound IS-19851 (400 ng/ml in water-acetonitrile-methanol mixture, 2:4:4, v/v/v) was used as internal standard (IS400(80)) for quantification of MI-883 in the brain, adipose tissue, urine, and bile samples. Urine (cumulative) and bile samples were mixed with IS400(80) solution (1:20, v/v). After mixing by pipetting and centrifuging for 4 min at 6000 rpm, 0.5 μl of each supernatant was injected into the LC-MS/MS system. Cumulative feces samples (114 mg–249 mg) were transferred to BMT-20-S tubes with 4 stainless steel balls, mixed with 20 volumes of IS400(80) solution, and dispersed using ULTRA-TURRAX Tube Drive for 1 min at 3000 rpm within the 30 min thrice. After dispersing and centrifuging for 2 min at 14,000 rpm, 0.5 μl of each supernatant was injected into the LC-MS/MS system.
The concentration of MI-883 in plasma and tissues was determined using a high-performance liquid chromatography/tandem mass spectrometry (HPLC-MS/MS) method. […]

[1] = male, C57BL/6N, mouse, po, Liver, 10 mg/kg
[2] = male, C57BL/6N, mouse, po, Plasma, 10 mg/kg

**Q.** With `NC(=O)c1cc(Cn2cc(-c3c(-c4ccc(Cl)cc4)nc4cc(F)ccn34)nn2)ccc1Cl` [MI-883, 2-chloro-5-((4-(2-(4-chlorophenyl)-7-fluoroimidazo[1,2-a]pyridin-3-yl)-1H-1,2,3-triazol-1-yl)methyl)benzamide] as the compound, how does the Tmax [1] read?
**A.** The Tmax was 30 min.

**Q.** And the half-life [1]?
**A.** The half-life was 211 min.

**Q.** And the Cmax [2]?
**A.** The Cmax was 9290 ng/mL.

**Q.** And the Tmax [2]?
**A.** Its Tmax is 30 min.

**Q.** What about the half-life [2] of the same compound?
**A.** The half-life was 170 min.

**Q.** What about the Tmax (male, mouse, ip, Plasma, 10 mg/kg, C57BL/6N mice) of the same compound?
**A.** Its Tmax is 30 min.

**Q.** And the “PK of MI-883: MI-883 p.o. adipose tis.” value (p.o., time 10)?
**A.** Its value is 211.

**Q.** What about the “PK of MI-883: MI-883 p.o. adipose tis.” value (p.o., time 120) of the same compound?
**A.** Its value is 5811.

**Q.** What about the “PK of MI-883: MI-883 p.o. adipose tis.” value (p.o., time 240) of the same compound?
**A.** The value was 980.

**Q.** What about the “PK of MI-883: MI-883 p.o. adipose tis.” value (p.o., time 480) of the same compound?
**A.** The value was 1023.

**Q.** What about the “PK of MI-883: MI-883 p.o. adipose tis.” value (p.o., time 720) of the same compound?
**A.** The value was 1016.

**Q.** What about the “PK of MI-883: MI-883 p.o. adipose tis.” value (p.o., time 1440) of the same compound?
**A.** The value was 8.

**Q.** And the “PK of MI-883: MI-883 p.o. bile” value (p.o., time 10)?
**A.** The value was 560.

**Q.** What about the “PK of MI-883: MI-883 p.o. bile” value (p.o., time 120) of the same compound?
**A.** Its value is 5663.

**Q.** And the “PK of MI-883: MI-883 p.o. bile” value (p.o., time 240)?
**A.** The value was 9638.

**Q.** What about the “PK of MI-883: MI-883 p.o. bile” value (p.o., time 480) of the same compound?
**A.** The value was 9739.

**Q.** What about the “PK of MI-883: MI-883 p.o. bile” value (p.o., time 720) of the same compound?
**A.** Its value is 23456.

**Q.** What about the “PK of MI-883: MI-883 p.o. bile” value (p.o., time 1440) of the same compound?
**A.** The value was 192.

**Q.** What about the “PK of MI-883: MI-883 p.o. brain” value (p.o., time 10) of the same compound?
**A.** Its value is 8.

**Q.** What about the “PK of MI-883: MI-883 p.o. brain” value (p.o., time 120) of the same compound?
**A.** Its value is 300.

**Q.** What about the “PK of MI-883: MI-883 p.o. brain” value (p.o., time 240) of the same compound?
**A.** Its value is 45.

**Q.** What about the “PK of MI-883: MI-883 p.o. brain” value (p.o., time 720) of the same compound?
**A.** Its value is 55.

**Q.** What about the “PK of MI-883: MI-883 p.o. colon” value (p.o., time 10) of the same compound?
**A.** Its value is 2929.

**Q.** What about the “PK of MI-883: MI-883 p.o. colon” value (p.o., time 120) of the same compound?
**A.** The value was 4345.

**Q.** And the “PK of MI-883: MI-883 p.o. colon” value (p.o., time 240)?
**A.** Its value is 1191.

**Q.** And the “PK of MI-883: MI-883 p.o. colon” value (p.o., time 480)?
**A.** Its value is 1428.

**Q.** What about the “PK of MI-883: MI-883 p.o. colon” value (p.o., time 720) of the same compound?
**A.** The value was 1386.

**Q.** What about the “PK of MI-883: MI-883 p.o. colon” value (p.o., time 1440) of the same compound?
**A.** Its value is 15.

**Q.** And the “PK of MI-883: MI-883 p.o. feces” value (p.o., feces, time 1440)?
**A.** Its value is 174 ng.

**Q.** What about the “PK of MI-883: MI-883 p.o. kidney” value (p.o., time 10) of the same compound?
**A.** Its value is 573.

**Q.** What about the “PK of MI-883: MI-883 p.o. kidney” value (p.o., time 120) of the same compound?
**A.** Its value is 9000.

**Q.** And the “PK of MI-883: MI-883 p.o. kidney” value (p.o., time 240)?
**A.** Its value is 2409.

**Q.** And the “PK of MI-883: MI-883 p.o. kidney” value (p.o., time 480)?
**A.** The value was 2347.

**Q.** What about the “PK of MI-883: MI-883 p.o. kidney” value (p.o., time 720) of the same compound?
**A.** Its value is 2408.

**Q.** What about the “PK of MI-883: MI-883 p.o. kidney” value (p.o., time 1440) of the same compound?
**A.** The value was 40.

**Q.** What about the “PK of MI-883: MI-883 p.o. liver” value (p.o., time 10) of the same compound?
**A.** Its value is 1972.

**Q.** What about the “PK of MI-883: MI-883 p.o. liver” value (p.o., time 120) of the same compound?
**A.** Its value is 14919.

**Q.** And the “PK of MI-883: MI-883 p.o. liver” value (p.o., time 240)?
**A.** Its value is 5297.

**Q.** And the “PK of MI-883: MI-883 p.o. liver” value (p.o., time 480)?
**A.** Its value is 5137.

**Q.** What about the “PK of MI-883: MI-883 p.o. liver” value (p.o., time 720) of the same compound?
**A.** The value was 5549.

**Q.** And the “PK of MI-883: MI-883 p.o. liver” value (p.o., time 1440)?
**A.** The value was 102.

**Q.** And the “PK of MI-883: MI-883 p.o. muscule” value (p.o., time 10)?
**A.** The value was 98.

**Q.** And the “PK of MI-883: MI-883 p.o. muscule” value (p.o., time 120)?
**A.** The value was 2725.

**Q.** What about the “PK of MI-883: MI-883 p.o. muscule” value (p.o., time 240) of the same compound?
**A.** Its value is 421.

**Q.** What about the “PK of MI-883: MI-883 p.o. muscule” value (p.o., time 480) of the same compound?
**A.** Its value is 488.

**Q.** What about the “PK of MI-883: MI-883 p.o. muscule” value (p.o., time 720) of the same compound?
**A.** Its value is 543.

**Q.** What about the “PK of MI-883: MI-883 p.o. small int.” value (p.o., time 10) of the same compound?
**A.** Its value is 5277.

**Q.** And the “PK of MI-883: MI-883 p.o. small int.” value (p.o., time 120)?
**A.** Its value is 9143.

**Q.** And the “PK of MI-883: MI-883 p.o. small int.” value (p.o., time 240)?
**A.** The value was 2579.

**Q.** What about the “PK of MI-883: MI-883 p.o. small int.” value (p.o., time 480) of the same compound?
**A.** Its value is 1398.

**Q.** And the “PK of MI-883: MI-883 p.o. small int.” value (p.o., time 720)?
**A.** The value was 2156.

**Q.** What about the “PK of MI-883: MI-883 p.o. small int.” value (p.o., time 1440) of the same compound?
**A.** The value was 21.

**Q.** And the “PK of MI-883: MI-883 p.o.” value (p.o., time 10)?
**A.** The value was 440.

**Q.** And the “PK of MI-883: MI-883 p.o.” value (p.o., time 120)?
**A.** The value was 9288.

**Q.** What about the “PK of MI-883: MI-883 p.o.” value (p.o., time 240) of the same compound?
**A.** Its value is 1645.

**Q.** What about the “PK of MI-883: MI-883 p.o.” value (p.o., time 480) of the same compound?
**A.** Its value is 1502.

**Q.** What about the “PK of MI-883: MI-883 p.o.” value (p.o., time 720) of the same compound?
**A.** Its value is 1788.

**Q.** What about the “PK of MI-883: MI-883 p.o.” value (p.o., time 1440) of the same compound?
**A.** The value was 15.

**Q.** And the “time with liver concentration above 1000 ng/g” value (single dose of 10 mg/kg)?
**A.** Its value is “more than 18 hours”.

**Q.** And the “concentration in the liver lysate” value (single dose of 10 mg/kg p.o., male C57BL/6N mice)?
**A.** The value was “greater than 1000 ng/g”.
